We go through nine molecules from patent US11339161B2, “Triazolo pyridines as modulators of gamma-secretase” (Boehringer Ingelheim International GmbH, priority 2017, dated 2022).

Usually inhibition stands for the change of the read-out against control, counted positive when it falls.

The structures appear in SMILES notation. Where two headings read alike, the source gives them in different places.

For one test, the target named is FGFR1 (Homo sapiens, UniProt P11362). Kind of test: Z'-LYTE SelectScreen biochemical kinase assay FGFR1. An excerpt:
(§1) Thermo Fisher Scientific SelectScreen™ Biochemical Kinase Profiling Service Z′-LYTE™ Screening Protocol and Assay Conditions Assay Theory
(§2) The […] biochemical assay employs a fluorescence-based, coupled-enzyme format and is based on the differential sensitivity of phosphorylated and non-phosphorylated peptides to proteolytic cleavage. The peptide substrate is labeled with two fluorophores—one at each end—that make up a FRET pair. In the primary reaction, the kinase transfers the gamma-phosphate of ATP to a single tyrosine, serine or threonine residue in a synthetic FRET-peptide. In the secondary reaction, a site-specific protease recognizes and cleaves non-phosphorylated FRET-peptides. Phosphorylation of FRET-peptides suppresses cleavage by the Development Reagent. Cleavage disrupts FRET between the donor (i.e., coumarin) and acceptor (i.e., fluorescein) fluorophores on the FRET-peptide, whereas uncleaved, phosphorylated FRET-peptides maintain FRET. A ratiometric method, which calculates the ratio (Emission Ratio=Coumarin emission (445 nm)/Fluorescein emission (520 nm)) of donor emission to acceptor emission after excitation of the donor fluorophore at 400 nm, is used to quantitate reaction progress, as shown in the equation below. A significant benefit of this ratiometric method for quantitating reaction progress is the elimination of well-to-well variations in FRET-peptide concentration and signal intensities. As a result, the assay yields very high Z′-factor values (>0.7) at a low percent phosphorylation. Both cleaved and uncleaved FRET-peptides contribute to the fluorescence signals and therefore to the Emission Ratio. The extent of phosphorylation of the FRET-peptide can be calculated from the Emission Ratio. The Emission Ratio will remain low if the FRET-peptide is phosphorylated (i.e., no kinase inhibition) and will be high if the FRET-peptide is non-phosphorylated (i.e., kinase inhibition).
(§3) The Test Compounds are screened in 1% DMSO (final) in the well. For 10 point titrations, 3-fold serial dilutions are conducted from the starting concentration of the customer's choosing.
(§4) All Peptide/Kinase Mixtures are diluted to a 2× working concentration in the appropriate Kinase Buffer (see section Kinase Specific Assay Conditions for a complete description).
(§5) All ATP Solutions are diluted to a 4× working concentration in Kinase Buffer (50 mM HEPES pH 7.5, 0.01% BRIJ-35, 10 mM MgCl2, 1 mM EGTA). ATP Km apparent is previously determined using a Z″-LYTE assay.
(§6) The Development Reagent is diluted in Development Buffer (see section Kinase-Specific Assay Conditions—Direct and Cascade for a complete description).
(§7) Bar-coded Corning, low volume NBS, black 384-well plate (Corning Cat. #4514) • 1. 100 nL—100× Test Compound in 100% DMSO • 2. 2.4 μL—Kinase buffer • 3. 5 μL—2× Peptide/Kinase Mixture • 4. 2.5 μL—4×ATP Solution • 5. 30—second plate shake • 6. 60—minute Kinase Reaction incubation at room temperature • 7. 5 μL—Development Reagent Solution • 8. 30—second plate shake • 9. 60—minute Development Reaction incubation at room temperature • 10. Read on fluorescence plate reader and analyze the data Z′-LYTE Assay Controls
(§8) SelectScreen Kinase Profiling Service uses XLfit from IDBS. The dose response curve is curve fit to model number 205 (sigmoidal dose-response model).
The 2×FGFR1/Tyr 04 mixture is prepared in 50 mM HEPES pH 7.5, 0.01% BRIJ-35, 10 mM MgCl2, 4 mM MnCl2, 1 mM EGTA, 2 mM DTT. The final 10 μL Kinase Reaction consists of 0.44-2.45 ng FGFR1 and 2 μM Tyr 04 in 50 mM HEPES pH 7.5, 0.01% BRIJ-35, 10 mM MgCl2, 2 mM MnCl2, 1 mM EGTA, 1 mM DTT. After the 1 hour Kinase Reaction incubation, 5 μL of a 1:64 dilution of Development Reagent B is added.

The test system of a further test is kinases. Kind of test: Z'-LYTE SelectScreen kinase panel: number of kinases with <40% inhibition out of 15 tested. Type of test: biochemical. The settings on record: 10 μmolar (10000 nM) compound; [ATP] Km app; 15 kinases tested.
Another test concerns the target ABL1 (Homo sapiens, UniProt P00519). Kind of test: Z'-LYTE SelectScreen biochemical kinase assay ABL1.
From the text: as §1, §2, §3, §4, §5, §6, §7, §8
The 2×ABL1/Tyr 02 mixture is prepared in 50 mM HEPES pH 7.5, 0.01% BRIJ-35, 10 mM MgCl2, 1 mM EGTA. The final 10 μL Kinase Reaction consists of 0.29-1.26 ng ABL1 and 2 μM Tyr 02 in 50 mM HEPES pH 7.5, 0.01% BRIJ-35, 10 mM MgCl2, 1 mM EGTA. After the 1 hour Kinase Reaction incubation, 5 μL of a 1:128 dilution of Development Reagent A is added.

The next test has as its target T1, AURKA (Aurora A) (Homo sapiens, UniProt O14965).
T1 sequence (O14965 1-403): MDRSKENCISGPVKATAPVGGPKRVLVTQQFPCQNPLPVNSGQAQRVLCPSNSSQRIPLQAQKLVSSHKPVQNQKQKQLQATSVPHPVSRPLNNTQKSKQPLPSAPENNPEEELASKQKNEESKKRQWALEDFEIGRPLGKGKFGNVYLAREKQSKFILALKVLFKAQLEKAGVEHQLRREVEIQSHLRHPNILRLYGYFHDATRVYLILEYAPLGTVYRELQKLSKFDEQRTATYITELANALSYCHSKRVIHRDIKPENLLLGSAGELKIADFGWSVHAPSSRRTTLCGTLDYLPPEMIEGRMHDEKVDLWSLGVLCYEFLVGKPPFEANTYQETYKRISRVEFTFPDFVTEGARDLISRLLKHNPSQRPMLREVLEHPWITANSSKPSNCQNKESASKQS
Kind of test: Z'-LYTE SelectScreen biochemical kinase assay AURKA (Aurora A).
From the text: as §1, §2, §3, §4, §5, §6, §7, §8
The 2×AURKA (Aurora A)/Ser/Thr 01 mixture is prepared in 50 mM HEPES pH 7.5, 0.01% BRIJ-35, 10 mM MgCl2, 1 mM EGTA. The final 10 μL Kinase Reaction consists of 0.91-8.56 ng AURKA (Aurora A) and 2 μM Ser/Thr 01 in 50 mM HEPES pH 7.5, 0.01% BRIJ-35, 10 mM MgCl2, 1 mM EGTA. After the 1 hour Kinase Reaction incubation, 5 μL of a 1:4096 dilution of Development Reagent A is added.

The mark [1] stands for this setting: 10 μmolar compound concentration, ATP at Km app, read-out: FGFR1 inhibition.
[2] abbreviates: read-out: % Inhibition mean FGFR1.
The mark [3] stands for this setting: 10 μmolar compound concentration, ATP at Km app, read-out: ABL1 inhibition.
Setting [4] is: read-out: % Inhibition mean ABL1.
[5] abbreviates: 10 μmolar compound concentration, ATP at Km app, read-out: AURKA (Aurora A) inhibition.
Where [6] appears, read: read-out: % Inhibition mean AURKA (Aurora A).

Sequence of ABL1 (P00519 whole entry): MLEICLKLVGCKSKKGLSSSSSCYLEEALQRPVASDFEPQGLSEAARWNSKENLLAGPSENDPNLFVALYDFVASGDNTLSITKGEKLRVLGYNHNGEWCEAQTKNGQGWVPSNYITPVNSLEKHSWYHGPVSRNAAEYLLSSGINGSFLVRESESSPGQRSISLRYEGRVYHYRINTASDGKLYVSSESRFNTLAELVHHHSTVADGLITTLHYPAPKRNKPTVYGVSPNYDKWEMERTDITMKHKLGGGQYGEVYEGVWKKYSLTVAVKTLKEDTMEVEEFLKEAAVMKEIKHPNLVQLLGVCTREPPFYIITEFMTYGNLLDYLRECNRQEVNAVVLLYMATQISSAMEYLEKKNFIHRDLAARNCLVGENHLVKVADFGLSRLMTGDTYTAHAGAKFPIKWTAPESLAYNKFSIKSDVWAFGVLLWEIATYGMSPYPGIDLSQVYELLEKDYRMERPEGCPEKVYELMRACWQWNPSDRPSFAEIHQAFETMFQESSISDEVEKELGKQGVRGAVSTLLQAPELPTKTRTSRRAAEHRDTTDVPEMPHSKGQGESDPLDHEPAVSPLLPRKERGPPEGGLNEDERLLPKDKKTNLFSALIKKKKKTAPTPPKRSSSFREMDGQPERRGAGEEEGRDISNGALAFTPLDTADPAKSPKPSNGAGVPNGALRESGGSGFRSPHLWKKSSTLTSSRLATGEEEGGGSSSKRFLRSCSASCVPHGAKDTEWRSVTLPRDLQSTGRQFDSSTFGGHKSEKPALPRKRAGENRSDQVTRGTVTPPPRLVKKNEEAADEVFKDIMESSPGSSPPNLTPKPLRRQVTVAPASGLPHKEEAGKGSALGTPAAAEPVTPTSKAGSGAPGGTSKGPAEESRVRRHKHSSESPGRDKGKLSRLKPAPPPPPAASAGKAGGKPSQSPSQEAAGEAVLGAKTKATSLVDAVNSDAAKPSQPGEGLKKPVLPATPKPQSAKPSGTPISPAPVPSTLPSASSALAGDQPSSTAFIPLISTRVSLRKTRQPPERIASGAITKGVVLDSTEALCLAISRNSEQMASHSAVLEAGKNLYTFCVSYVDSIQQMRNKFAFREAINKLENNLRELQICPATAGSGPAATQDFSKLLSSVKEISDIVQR
Sequence of FGFR1 (P11362 22-822): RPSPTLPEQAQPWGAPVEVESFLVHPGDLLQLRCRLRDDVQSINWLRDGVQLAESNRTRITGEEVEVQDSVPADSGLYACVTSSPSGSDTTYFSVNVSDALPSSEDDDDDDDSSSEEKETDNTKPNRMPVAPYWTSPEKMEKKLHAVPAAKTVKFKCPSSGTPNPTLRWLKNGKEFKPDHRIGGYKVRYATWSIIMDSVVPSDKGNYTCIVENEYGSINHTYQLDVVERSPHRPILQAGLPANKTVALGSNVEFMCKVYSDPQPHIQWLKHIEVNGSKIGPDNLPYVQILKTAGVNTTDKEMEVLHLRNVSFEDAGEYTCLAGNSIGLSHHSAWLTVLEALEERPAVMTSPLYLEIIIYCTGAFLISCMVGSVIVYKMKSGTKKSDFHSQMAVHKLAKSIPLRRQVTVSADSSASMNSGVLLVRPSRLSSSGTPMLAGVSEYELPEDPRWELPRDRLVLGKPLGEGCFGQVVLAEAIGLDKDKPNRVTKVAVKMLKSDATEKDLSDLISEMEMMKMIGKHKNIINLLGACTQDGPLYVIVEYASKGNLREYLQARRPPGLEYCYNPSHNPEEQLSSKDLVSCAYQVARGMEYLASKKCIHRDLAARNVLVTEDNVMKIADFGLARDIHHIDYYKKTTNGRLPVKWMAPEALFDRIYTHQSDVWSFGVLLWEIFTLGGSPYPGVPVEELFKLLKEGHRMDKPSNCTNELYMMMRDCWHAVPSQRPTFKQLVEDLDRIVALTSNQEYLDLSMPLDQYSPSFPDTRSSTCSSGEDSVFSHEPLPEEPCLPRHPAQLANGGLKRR

For `CCCCn1ncc2c1CCC(Nc1nc3c(-c4ccc(F)cc4C)cccn3n1)C2` (stereo not drawn) [Example 46, [8-(4-fluoro-2-methyl-phenyl)-[1,2,4]triazolo[1,5-a]pyridine-2-yl]-(1-butyl-4,5,6,7-tetrahydro-1H-indazol-5-yl)-amine], the inhibition at 10 µM at FGFR1 (setting [1]) was under 40%; at FGFR1 (setting [2]) it was 21%; at ABL1 (setting [3]), under 40%; on ABL1 (setting [4]) it was 10%; at AURKA (Aurora A) (setting [5]), under 40%; on AURKA (Aurora A) (setting [6]) it was 14%. In the test with kinases, the “No. of kinases with <40% inhibition” value is reported as 14/15.

Consider `CCn1ncc2c1CC[C@@H](Nc1nc3c(-c4ccc(F)cc4C)cccn3n1)C2` [Example R-42, (R)-(1-Ethyl-4,5,6,7-tetrahydro-1H-indazol-5-yl)-[8-(4-fluoro-2-methyl-phenyl)-[1,2,4]triazolo[1,5-a]pyridine-2-yl]-amine], for which the inhibition at 10 µM at FGFR1 (setting [1]) is under 40%; on FGFR1 (setting [2]), 16%; at ABL1 (setting [3]) it was under 40%; on ABL1 (setting [4]) it was 14%; at AURKA (Aurora A) (setting [5]) it was under 40%; on AURKA (Aurora A) (setting [6]) it was 3%. Further, in the test on kinases, the “No. of kinases with <40% inhibition” value was 14/15.

As to `CCc1nn(C)c2c1CCC(Nc1nc3c(-c4ccc(F)cc4C)cccn3n1)C2` (stereo not drawn) [Example 54, (3-Ethyl-1-methyl-4,5,6,7-tetrahydro-1H-indazol-6-yl)-[8-(4-fluoro-2-methyl-phenyl)-[1,2,4]triazolo[1,5-a]pyridine-2-yl]-amine], the inhibition at 10 µM is under 40% on FGFR1 (setting [1]); -3% at FGFR1 (setting [2]); under 40% at ABL1 (setting [3]); 12% on ABL1 (setting [4]); under 40% at AURKA (Aurora A) (setting [5]); 18% on AURKA (Aurora A) (setting [6]). Moreover, the “No. of kinases with <40% inhibition” value in the test on kinases was 15/15.

Take `Cc1cc(F)ccc1-c1cccn2nc(NC3CCc4cnn(C)c4C3)nc12` (stereo not drawn) [Example 40, [8-(4-Fluoro-2-methyl-phenyl)-[1,2,4]triazolo[1,5-a]pyridine-2-yl]-(1-methyl-4,5,6,7-tetrahydro-1H-indazol-6-yl)-amine]: the inhibition at 10 µM at FGFR1 (setting [1]) is under 40%; at FGFR1 (setting [2]), 27%; at ABL1 (setting [3]), under 40%; at ABL1 (setting [4]), 9%; on AURKA (Aurora A) (setting [5]), under 40%; at AURKA (Aurora A) (setting [6]), 13%. Besides, the “No. of kinases with <40% inhibition” value in the test on kinases was 13/15.

On to `CCn1nc(Cl)c2c1CCC(Nc1nc3c(-c4ccc(F)cc4C)cccn3n1)C2` (stereo not drawn) [Example 48, (3-Chloro-1-ethyl-4,5,6,7-tetrahydro-1H-indazol-5-yl)-[8-(4-fluoro-2-methyl-phenyl)-[1,2,4]triazolo[1,5-a]pyridine-2-yl]-amine], for which the inhibition at 10 µM was under 40% on FGFR1 (setting [1]); 18% on FGFR1 (setting [2]); under 40% at ABL1 (setting [3]); 13% on ABL1 (setting [4]); under 40% at AURKA (Aurora A) (setting [5]); -14% on AURKA (Aurora A) (setting [6]). The “No. of kinases with <40% inhibition” value in the test with kinases was 14/15.

Consider `CCn1ncc2c1C(C)CC(Nc1nc3c(-c4cc(F)c(F)c(F)c4)cccn3n1)C2` (stereo not drawn) [Example 49, (1-Ethyl-7-methyl-4,5,6,7-tetrahydro-1H-indazol-5-yl)-[8-(3,4,5-trifluoro-phenyl)-[1,2,4]triazolo[1,5-a]pyridine-2-yl]-amine], for which the inhibition at 10 µM on FGFR1 (setting [1]) is under 40%; at FGFR1 (setting [2]), 9%; at ABL1 (setting [3]) it was under 40%; on ABL1 (setting [4]), 15%; at AURKA (Aurora A) (setting [5]), under 40%; at AURKA (Aurora A) (setting [6]), -14%. The “No. of kinases with <40% inhibition” value in the test with kinases is 14/15.

With `Cc1cc(F)ccc1-c1cccn2nc(Nc3ccc4c(cnn4C)c3)nc12` [Example 9, [8-(4-fluoro-2-methyl-phenyl)-[1,2,4]triazolo[1,5-a]pyridine-2-yl]-(1-methyl-1H-indazol-5-yl)-amine], the inhibition at 10 µM is under 40% at FGFR1 (setting [1]); 35% at FGFR1 (setting [2]); 40 to 80% at ABL1 (setting [3]); 63% on ABL1 (setting [4]); 40 to 80% on AURKA (Aurora A) (setting [5]); 57% on AURKA (Aurora A) (setting [6]). For the same molecule, the “No. of kinases with <40% inhibition” value in the test on kinases was 7/15.

As for `Cc1cc(F)ccc1-c1cccn2nc(NC3CCc4c(cnn4CC(C)C)C3)nc12` (stereo not drawn) [Example 45, [8-(4-fluoro-2-methyl-phenyl)-[1,2,4]triazolo[1,5-a]pyridine-2-yl]-(1-isobutyl-4,5,6,7-tetrahydro-1H-indazol-5-yl)-amine], the inhibition at 10 µM at FGFR1 (setting [1]) was under 40%; at FGFR1 (setting [2]), 9%; on ABL1 (setting [3]), under 40%; on ABL1 (setting [4]) it was 24%; at AURKA (Aurora A) (setting [5]), under 40%; on AURKA (Aurora A) (setting [6]), -13%. In addition, the “No. of kinases with <40% inhibition” value in the test with kinases is 14/15.

As for `CCCn1ncc2c1CCC(Nc1nc3c(-c4ccc(F)cc4C)cccn3n1)C2` (stereo not drawn) [Example 43, [8-(4-fluoro-2-methyl-phenyl)-[1,2,4]triazolo[1,5-a]pyridine-2-yl]-(1-propyl-4,5,6,7-tetrahydro-1H-indazol-5-yl)-amine], the inhibition at 10 µM was under 40% on FGFR1 (setting [1]); 15% on FGFR1 (setting [2]); under 40% at ABL1 (setting [3]); 17% on ABL1 (setting [4]); under 40% on AURKA (Aurora A) (setting [5]); -17% at AURKA (Aurora A) (setting [6]). Besides, in the test on kinases, the “No. of kinases with <40% inhibition” value is 14/15.
